# Data from patent publication US11753433B2, “Methods of synthesizing substituted purine compounds” (Epizyme, Inc., priority 2013, dated 2023).
# Tests used:
# Assay type in all cases: physicochemical
# Solution stability = test: Solution stability
# Experimental: 0.1 mg/ml solutions of Form B were prepared in five buffers, including 0.01N HCl (pH 2), 50 mM sodium citrate (pH 4), 50 mM sodium citrate (pH 6), 50 mM sodium phosphate (pH 8), and 50 mM sodium carbonate (pH 10). Methanol was added as a co-solvent to dissolve Form B in buffers (i.e., 10% (v/v) in pH 2, 4, and 6 buffers, 20% (v/v) in pH 8 buffer, and 30% (v/v) in pH 10 buffer). Each buffer solution containing Form B was stored at 3 different temperatures: 25° C., 37° C., and 50° C. Aliquots were taken for HPLC analysis after 1 day and 7 days. pH values were also measured before and after the stability experiments.
# [1] = Equilibrium solubility in organic solvents; details: RT; for solubility at 24 h: organic solvent or mixture, thermodynamic from solid
# Experimental: Approximately 10 mg of Form B was weighed into a 1-ml glass vial followed by addition of 0.5 ml relevant media. Each sample was continuously stirred using a magnetic stir bar at 25° C. for 24 h. The suspension was then filtered using a nylon membrane with a pore diameter of 0.22 μm. The filtrates were diluted for HPLC analysis and final pH was measured. The solid residue of each sample was collected for XRPD analysis. The solubility of Form B was also determined in commonly used organic solvents (diluents or HPLC mobile phase). The solubility data summarized in Table 10 indicates Form B is quite soluble in MeOH, EtOH, and IPA.
# [2] = Solubility in Simulated Gastric Fluid (SGF) at 37° C.; details: for Resulting Solid: XRPD
# Experimental: To study if Form A and Form B would perform differently in stomach, the solubilities of Form A and Form B were measured in Simulated Gastric Fluid (SGF, see below for SGF preparation) at 37° C. […] The remaining solids after each time point were subject to XRPD analysis. […] Weigh appropriate amount of hydrochloride (HCl) and sodium chloride (NaCl) into a 1-L flask followed by addition of 1-L deionized water. The mixture was stirred until all solids are dissolved. Check pH value with a pH-meter and adjust the pH to 1.8 with HCl (1N) or NaOH (1N).
structure (smiles),measurement,setting,value
"CC(C)N(C[C@H]1O[C@@H](n2cnc3c(N)ncnc32)[C@H](O)[C@@H]1O)[C@H]1C[C@@H](CCc2nc3cc(C(C)(C)C)ccc3[nH]2)C1 [Form B, (2R,3R,4S,5R)-2-(6-amino-9H-purin-9-yl)-5-((((1r,3S)-3-(2-(5-(tert-butyl)-1H-benzo[d]imidazol-2-yl)ethyl)cyclobutyl)(isopropyl)amino)methyl)tetrahydrofuran-3,4-diol trihydrate]",% area,"Solution stability; pH 2, 25° C., 24 h",98.7%
same,% claim,"Solution stability; pH 2, 25° C., 24 h",97.1%
same,pH,"Solution stability; pH 2, 25° C., 24 h",2.1
same,% area,"Solution stability; pH 2, 25° C., 7 days",98.5%
same,% claim,"Solution stability; pH 2, 25° C., 7 days",99.1%
same,pH,"Solution stability; pH 2, 25° C., 7 days",2.1
same,% area,"Solution stability; pH 2, 37° C., 24 h",98.7%
same,% claim,"Solution stability; pH 2, 37° C., 24 h",96.8%
same,pH,"Solution stability; pH 2, 37° C., 24 h",2.1
same,% area,"Solution stability; pH 2, 37° C., 7 days",98.4%
same,% claim,"Solution stability; pH 2, 37° C., 7 days",97.5%
same,pH,"Solution stability; pH 2, 37° C., 7 days",2.1
same,% area,"Solution stability; pH 2, 50° C., 24 h",98.3%
same,% claim,"Solution stability; pH 2, 50° C., 24 h",97.0%
same,pH,"Solution stability; pH 2, 50° C., 24 h",2.1
same,% area,"Solution stability; pH 2, 50° C., 7 days",98.4%
same,% claim,"Solution stability; pH 2, 50° C., 7 days",97.0%
same,pH,"Solution stability; pH 2, 50° C., 7 days",2.1
same,degradation in solution,"Solution stability; pH 2-10 buffers, 25-50° C., up to 7 days",less than 5%
same,% area,"Solution stability; pH 4, 25° C., 24 h",99.4%
same,% claim,"Solution stability; pH 4, 25° C., 24 h",97.4%
same,pH,"Solution stability; pH 4, 25° C., 24 h",4.2
same,% area,"Solution stability; pH 4, 25° C., 7 days",99.6%
same,% claim,"Solution stability; pH 4, 25° C., 7 days",100.2%
same,pH,"Solution stability; pH 4, 25° C., 7 days",4.2
same,% area,"Solution stability; pH 4, 37° C., 24 h",99.4%
same,% claim,"Solution stability; pH 4, 37° C., 24 h",97.6%
same,pH,"Solution stability; pH 4, 37° C., 24 h",4.1
same,% area,"Solution stability; pH 4, 37° C., 7 days",99.5%
same,% claim,"Solution stability; pH 4, 37° C., 7 days",99.0%
same,pH,"Solution stability; pH 4, 37° C., 7 days",4.1
same,% area,"Solution stability; pH 4, 50° C., 24 h",99.4%
same,% claim,"Solution stability; pH 4, 50° C., 24 h",97.6%
same,pH,"Solution stability; pH 4, 50° C., 24 h",4.1
same,% area,"Solution stability; pH 4, 50° C., 7 days",99.5%
same,% claim,"Solution stability; pH 4, 50° C., 7 days",98.7%
same,pH,"Solution stability; pH 4, 50° C., 7 days",4.2
same,% area,"Solution stability; pH 6, 25° C., 24 h",99.2%
same,% claim,"Solution stability; pH 6, 25° C., 24 h",98.0%
same,pH,"Solution stability; pH 6, 25° C., 24 h",6.2
same,% area,"Solution stability; pH 6, 25° C., 7 days",99.5%
same,% claim,"Solution stability; pH 6, 25° C., 7 days",100.0%
same,pH,"Solution stability; pH 6, 25° C., 7 days",6.2
same,% area,"Solution stability; pH 6, 37° C., 24 h",99.3%
same,% claim,"Solution stability; pH 6, 37° C., 24 h",97.9%
same,pH,"Solution stability; pH 6, 37° C., 24 h",6.2
same,% area,"Solution stability; pH 6, 37° C., 7 days",99.4%
same,% claim,"Solution stability; pH 6, 37° C., 7 days",99.0%
same,pH,"Solution stability; pH 6, 37° C., 7 days",6.3
same,% area,"Solution stability; pH 6, 50° C., 24 h",99.3%
same,% claim,"Solution stability; pH 6, 50° C., 24 h",98.1%
same,pH,"Solution stability; pH 6, 50° C., 24 h",6.2
same,% area,"Solution stability; pH 6, 50° C., 7 days",99.5%
same,% claim,"Solution stability; pH 6, 50° C., 7 days",98.9%
same,pH,"Solution stability; pH 6, 50° C., 7 days",6.2
same,% area,"Solution stability; pH 8, 25° C., 24 h",99.2%
same,% claim,"Solution stability; pH 8, 25° C., 24 h",98.0%
same,pH,"Solution stability; pH 8, 25° C., 24 h",8.2
same,% area,"Solution stability; pH 8, 25° C., 7 days",99.5%
same,% claim,"Solution stability; pH 8, 25° C., 7 days",99.8%
same,pH,"Solution stability; pH 8, 25° C., 7 days",8.2
same,% area,"Solution stability; pH 8, 37° C., 24 h",99.5%
same,% claim,"Solution stability; pH 8, 37° C., 24 h",98.4%
same,pH,"Solution stability; pH 8, 37° C., 24 h",8.2
same,% area,"Solution stability; pH 8, 37° C., 7 days",99.5%
same,% claim,"Solution stability; pH 8, 37° C., 7 days",99.3%
same,pH,"Solution stability; pH 8, 37° C., 7 days",8.3
same,% area,"Solution stability; pH 8, 50° C., 24 h",99.5%
same,% claim,"Solution stability; pH 8, 50° C., 24 h",98.0%
same,pH,"Solution stability; pH 8, 50° C., 24 h",8.3
same,% area,"Solution stability; pH 8, 50° C., 7 days",99.5%
same,% claim,"Solution stability; pH 8, 50° C., 7 days",98.8%
same,pH,"Solution stability; pH 8, 50° C., 7 days",8.3
same,% area,"Solution stability; pH 10, 25° C., 24 h",99.4%
same,% claim,"Solution stability; pH 10, 25° C., 24 h",98.0%
same,pH,"Solution stability; pH 10, 25° C., 24 h",10.9
same,% area,"Solution stability; pH 10, 25° C., 7 days",99.4%
same,% claim,"Solution stability; pH 10, 25° C., 7 days",99.7%
same,pH,"Solution stability; pH 10, 25° C., 7 days",10.9
same,% area,"Solution stability; pH 10, 37° C., 24 h",99.4%
same,% claim,"Solution stability; pH 10, 37° C., 24 h",98.2%
same,pH,"Solution stability; pH 10, 37° C., 24 h",10.9
same,% area,"Solution stability; pH 10, 37° C., 7 days",99.4%
same,% claim,"Solution stability; pH 10, 37° C., 7 days",99.0%
same,pH,"Solution stability; pH 10, 37° C., 7 days",10.9
same,% area,"Solution stability; pH 10, 50° C., 24 h",99.5%
same,% claim,"Solution stability; pH 10, 50° C., 24 h",97.9%
same,pH,"Solution stability; pH 10, 50° C., 24 h",11.0
same,% area,"Solution stability; pH 10, 50° C., 7 days",99.4%
same,% claim,"Solution stability; pH 10, 50° C., 7 days",98.9%
same,pH,"Solution stability; pH 10, 50° C., 7 days",10.9
same,Remaining Solid,[1]; Acetone,Form B
same,Remaining Solid,[1]; Acetonitrile,Form B
same,Remaining Solid,[1]; Ethanol,No solid obtained
same,Remaining Solid,[1]; Isopropanol,No solid obtained
same,solubility (in words),"[1]; MeOH, EtOH, and IPA",quite soluble
same,Remaining Solid,[1]; Methanol,No solid obtained
same,solubility at 24 h,[1]; Acetone,23.9 mg/mL
same,solubility at 24 h,[1]; Acetonitrile,1.5 mg/mL
same,solubility at 24 h,[1]; Ethanol,> 87 mg/mL
same,solubility at 24 h,[1]; Isopropanol,> 129 mg/mL
same,solubility at 24 h,[1]; Methanol,> 200 mg/mL
same,Final pH,[2],5.3
same,Resulting Solid,[2]; 15 min,Type B
same,Resulting Solid,[2]; 30 min,Type B
same,Resulting Solid,[2]; 60 min,Type B
same,solubility at 15 min,"[2]; Simulated Gastric Fluid (SGF), pH 1.8, simulated gastric fluid, thermodynamic from solid, 15 min, calculated using free base content",5.4 mg/mL
same,solubility at 30 min,"[2]; Simulated Gastric Fluid (SGF), pH 1.8, simulated gastric fluid, thermodynamic from solid, 30 min, calculated using free base content",5.4 mg/mL
same,solubility at 60 min,"[2]; Simulated Gastric Fluid (SGF), pH 1.8, simulated gastric fluid, thermodynamic from solid, 60 min, calculated using free base content",5.6 mg/mL
